± gives the standard deviation of the averaged measurements.
What was measured:
Settings in all cases: 72 h
Calu-3 [1] = test: drug sensitivity score (DSS) for viability; higher = more toxic; extreme values may be limits of the assay
Caco-2 [2] = test: as above
HepG2 [3] = test: as above
U2OS [4] = test: as above
Vero E6 [5] = test: as above
Calu-3 [6] = test: cell viability relative to DMSO; higher = less toxic
Caco-2 [7] = test: as above
HepG2 [8] = test: as above
U2OS [9] = test: as above
Vero E6 [10] = test: as above
Calu-3 [11] = test: relative viability EC50 (midpoint between 100% and the lowest measured viability); higher = less toxic
Caco-2 [12] = test: as above
HepG2 [13] = test: as above
U2OS [14] = test: as above
Vero E6 [15] = test: as above

Structure (SMILES)	drug sensitivity score (Calu-3 [1])	drug sensitivity score (Caco-2 [2])	drug sensitivity score (HepG2 [3])	drug sensitivity score (U2OS [4])	drug sensitivity score (Vero E6 [5])	cell viability (Calu-3 [6]; 1 nM)	cell viability (Calu-3 [6]; 10 nM)	cell viability (Calu-3 [6]; 100 nM)	cell viability (Calu-3 [6]; 1000 nM)	cell viability (Calu-3 [6]; 10000 nM)	cell viability (Caco-2 [7]; 1 nM)	cell viability (Caco-2 [7]; 10 nM)	cell viability (Caco-2 [7]; 100 nM)	cell viability (Caco-2 [7]; 1000 nM)	cell viability (Caco-2 [7]; 10000 nM)	cell viability (HepG2 [8]; 1 nM)	cell viability (HepG2 [8]; 10 nM)	cell viability (HepG2 [8]; 100 nM)	cell viability (HepG2 [8]; 1000 nM)	cell viability (HepG2 [8]; 10000 nM)	cell viability (U2OS [9]; 1 nM)	cell viability (U2OS [9]; 10 nM)	cell viability (U2OS [9]; 100 nM)	cell viability (U2OS [9]; 1000 nM)	cell viability (U2OS [9]; 10000 nM)	cell viability (Vero E6 [10]; 1 nM)	cell viability (Vero E6 [10]; 10 nM)	cell viability (Vero E6 [10]; 100 nM)	cell viability (Vero E6 [10]; 1000 nM)	cell viability (Vero E6 [10]; 10000 nM)	relative viability EC50 (Calu-3 [11])	relative viability EC50 (Caco-2 [12])	relative viability EC50 (HepG2 [13])	relative viability EC50 (U2OS [14])	relative viability EC50 (Vero E6 [15])
CC=CC1=C(C(=O)O)N2C(=O)[C@@H](NC(=O)[C@H](N)c3ccc(O)cc3)[C@H]2SC1 (mixture of isomers) [cefprozil]	0	0	0	0	0	86.7%	94.2%	81%	97.8%	95.5%	101%	94.3%	82.7%	120%	125%	112%	104%	100%	97.2%	106%	95.8%	101%	96.8%	99.8%	98.7%	110%	90.7%	99.9%	103%	112%	> 10 µM	> 10 µM	> 10 µM	> 10 µM	> 10 µM
N[C@H]1C(O)O[C@H](CO)[C@@H](O)[C@@H]1O (mixture of isomers) [glucosamine]	0	0	0	0	0	101%	107%	97.2%	101%	105%	88.8%	91.8%	95%	96.6%	100%	112%	106%	109%	100%	112%	97.6%	99.9%	94.2%	96.4%	95.7%	108%	103%	101%	97.7%	105%	> 10 µM	> 10 µM	> 10 µM	> 10 µM	> 10 µM
Cc1onc(O)c1C[C@@H](N)C(=O)O (racemic) [AMPA-(RS)]	0	0	0	0	0	95.7 ± 6.4%	98.5 ± 1.5%	95.8 ± 5%	99.1 ± 3.5%	106 ± 12%	99.7 ± 0.42%	89.15 ± 0.071%	98.2 ± 3.9%	93.2 ± 3.2%	93 ± 3.8%	92.3 ± 9.6%	102 ± 13%	96.5 ± 5.2%	101 ± 5.9%	108 ± 5.2%	97.1 ± 1.8%	95.6 ± 1.3%	98.2 ± 2.3%	98.5 ± 3.6%	102 ± 2.5%	99 ± 3.2%	98.9 ± 1.1%	93.8 ± 2.1%	97.2 ± 1.3%	104 ± 0.78%	> 10 µM	> 10 µM	> 10 µM	> 10 µM	> 10 µM
O=C(O)CCC/C=C\C[C@@H]1[C@@H](/C=C/[C@@H](O)COc2cccc(Cl)c2)[C@H](O)C[C@@H]1O (racemic) [cloprostenol-(+/-)]	0	0	0	0	0	110%	108%	106%	95.5%	100%	100%	104%	96.1%	97.7%	92.3%	98.2%	106%	104%	103%	104%	103%	106%	99.9%	102%	97.6%	99.1%	103%	105%	102%	102%	> 10 µM	> 10 µM	> 10 µM	> 10 µM	> 10 µM
N#C/C(=C\c1ccc(O)c(O)c1)C(=O)OCCc1cccs1 [2-TEDC]	0	0	1	0	0	91.1%	94.2%	96.1%	99.4%	93.9%	96.3%	102%	91.8%	101%	99.3%	93.8%	96.1%	104%	86%	91.3%	98.6%	101%	96.1%	99.2%	95.2%	98.5%	97.9%	96.7%	93.6%	102%	> 10 µM	> 10 µM	> 10 µM	> 10 µM	> 10 µM
C[C@]12CC[C@@H](O)C[C@H]1CC[C@@H]1[C@@H]2CC[C@]2(C)C(=O)CC[C@@H]12 [3-alpha-hydroxy-5-beta-androstan-17-one]	0	0.233 ± 0.4	0.233 ± 0.4	0	0	99.6 ± 4.8%	97.4 ± 4%	96.1 ± 3.2%	97.8 ± 6.8%	101 ± 3.2%	97.8 ± 5%	104 ± 14%	97.6 ± 4.1%	98.8 ± 3.4%	92.9 ± 15%	101 ± 8.8%	96.6 ± 5.6%	102 ± 5.1%	104 ± 7.5%	87.4 ± 9.7%	102 ± 2.1%	97.8 ± 1.6%	102 ± 2.6%	98.6 ± 2.8%	99.9 ± 3.2%	99.8 ± 2.9%	101 ± 1.3%	103 ± 3.8%	103 ± 2.3%	94.3 ± 1.5%	> 10 µM	> 10 µM	> 10 µM	> 10 µM	> 10 µM
O=C(O)C(=O)CBr [3-bromopyruvate]	0	0	0	0	0	102%	98%	105%	98.9%	94.2%	95.5%	97.1%	96.5%	97.2%	97.9%	104%	92.1%	100%	99.7%	101%	97.7%	99.4%	98%	102%	104%	96.7%	96.6%	96.9%	96.7%	92.8%	> 10 µM	> 10 µM	> 10 µM	> 10 µM	> 10 µM
CCCN[C@@H]1CCc2c(OC)cccc2[C@@H]1C [AJ76-(+)]	0	0	0	0	0	100%	95.9%	96.8%	96%	114%	104%	97.8%	96.4%	86.8%	96.7%	88.5%	100%	103%	103%	94%	102%	105%	95.7%	95.9%	98.8%	97.8%	104%	96.6%	99.6%	91.3%	> 10 µM	> 10 µM	> 10 µM	> 10 µM	> 10 µM
COc1cnc(-c2ccc(Cn3c(CC(C)(C)C(=O)O)c(SC(C)(C)C)c4cc(OC[C@@H]5Cc6ccccc6N5C(C)=O)ccc43)cc2)nc1 [AM679]	0	0	0	0	0	101%	95.4%	101%	109%	107%	102%	94%	99%	97%	92.4%	103%	104%	101%	102%	93.4%	102%	99.8%	99.7%	100%	98.1%	114%	105%	106%	99.9%	128%	> 10 µM	> 10 µM	> 10 µM	> 10 µM	> 10 µM
Cc1nc2cnc3ccc(C#Cc4cccnc4)cc3c2n1-c1ccc(C(C)(C)C#N)cc1 [BAG-956]	16.3	15.3	7.9	15.8	10.8	92.7%	96.2%	79%	27.7%	30.2%	97.8%	101%	79.7%	33.5%	33.3%	104%	103%	93.3%	62.3%	41.4%	97.4%	101%	88.8%	24.9%	23.8%	104%	103%	97.5%	42.6%	35.3%	0.144 µM	0.139 µM	0.604 µM	0.202 µM	0.41 µM
CC(C)n1c(=O)n(C(=O)N[C@H]2C[C@H]3CC[C@@H](C2)N3C)c2ccccc21 [BIMU-8]	0	0	0	0	0	96.4%	105%	96.3%	92.3%	93.9%	99%	105%	98.1%	102%	96.9%	93.2%	95.2%	90.5%	93.2%	97%	102%	103%	99.1%	101%	99.1%	105%	99.6%	99.6%	98.9%	94.7%	> 10 µM	> 10 µM	> 10 µM	> 10 µM	> 10 µM
CN1C(=O)N(c2cc(Cl)cc(Cl)c2)C(=O)[C@@]1(C)Cc1ccc(Br)cc1 [BIRT-377]	0	0.3	0	0	0	98.4%	92.8%	91.1%	105%	92.7%	101%	98%	97.9%	102%	83.4%	105%	101%	104%	86.6%	103%	98.1%	100%	95.2%	99.2%	88.8%	98.7%	96.8%	104%	95.3%	101%	> 10 µM	> 10 µM	> 10 µM	> 10 µM	> 10 µM
CC(C)(C)c1ccc2cc(C#N)c(C#N)cc2c1 [BRD9876]	0.2	0.1	0	0	0	103%	100%	90.2%	95.8%	85.9%	99%	98.6%	102%	96%	89%	97.7%	98.8%	90.7%	89.9%	97.6%	101%	106%	95.6%	99.8%	94.9%	98.5%	104%	99.2%	99.4%	97.8%	> 10 µM	> 10 µM	> 10 µM	> 10 µM	> 10 µM
CC1=NN(c2ccc(C(=O)O)cc2)C(=O)C1=Cc1ccc(-c2cc(C)c(C)cc2[N+](=O)[O-])o1 [C646]	0.4	0	0	0	0	106%	98.1%	89.3%	89.6%	98.9%	87.3%	90.5%	101%	94%	98.1%	90%	102%	92.5%	93.7%	90.5%	102%	95.6%	98.8%	94.9%	92.9%	97.3%	102%	100%	100%	99%	> 10 µM	> 10 µM	> 10 µM	> 10 µM	> 10 µM
